Assays:
5-lipoxygenase (5-LOX) = settings: read-out: IC50 for the inhibition of 5-LOX; background, prior art; cited from earlier work
[1] = test system: Freund's Complete Adjuvant induced paw edema; experiment: Freund's Complete Adjuvant induced arthritis model, inhibition of paw edema; type: in vivo; settings: 10 mg/kg body weight daily (positive control); FCA-induced Sprague Dawley rats; vs CMC control

Compound	IC50 (5-lipoxygenase (5-LOX))	Reduction in Paw edema [1]
3-O-Acetyl-11-keto-β-Boswellic acid [AKBA]	1500 nM	–
C[C@]12C=CC(=O)C=C1CC[C@@H]1[C@@H]2[C@@H](O)C[C@@]2(C)[C@H]1CC[C@]2(O)C(=O)CO [Prednisolone]	–	46%
